Assay results as given in PubChem BioAssay AID493085 (Broad Institute, 2011).
Records with an inconclusive call do not appear. Calls of active or inactive are those of the source.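 How the source made its calls: active means falling-signal curve with half-maximal concentration at or below ten times the top tested dose; inconclusive means flat fit at 30 to 70% inhibition, or poor fit; inactive means signal rise, flat within 30%, or potency beyond limit.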

Tested on: NIH3T3 R4 HSE-GFP/Tet-RFP reporter, fluorescence, 48 h
Test: Tet-On RFP internal-standard readout, HSF1 screen, dose response, cell-based, NIH3T3 R4, HSE-GFP and Tet-On RFP, cherry-pick, set 3 (AID 493085);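 further: cells heat shocked 2 h at 42 °C with doxycycline to induce reporters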

Structure (SMILES) | AC50
OCCCNc1nccc(-c2cc(Nc3cccc(Cl)c3)ncn2)n1 | 0.354 µM
CCc1ccc(C(=O)Cn2ncc(Cl)c(Cl)c2=O)cc1 | 18.6 µM
COc1c(N2CCN(C(=S)NC3CC4CCC3C4)C(C)C2)c(F)cc2c(=O)c(C(=O)O)cn(C3CC3)c12 (configuration not stated) | 17.9 µM
COc1cccc(-c2nnc3n2N=C(C(C)(C)C)CS3)c1 | 0.484 µM
O=c1cc(-c2ccccc2)c2ccc(O)cc2o1 | > 19.5 µM (inactive)
Cc1nn(-c2ccccc2)c(Cl)c1C(=O)N1CCN(c2ncnc3c2cnn3-c2ccccc2)CC1 | 6.77 µM
Cc1cc(C)c(NC(=O)CSc2nncn2-c2cccnc2)c(C)c1 | > 19.5 µM (inactive)
COc1ccc(CNC(=O)c2cnc3scc(C)n3c2=O)cc1 | > 19.5 µM (inactive)
O=C(N/N=C/c1ccc[nH]1)c1ccc(COc2cccc3cccnc23)cc1 | 0.821 µM
Cc1cc(C)c2nc(C(F)(F)F)c(C#N)c(N)c2c1 | 1.54 µM
CCC(Sc1nc(C)cc(C)n1)C(=O)NC1=NN=C(c2ccc(C)cc2)CS1 (configuration not stated) | 14.8 µM
O=S(=O)(c1ccc2c(c1)C(=NO)c1cc(S(=O)(=O)N3CCCCC3)ccc1-2)N1CCCCC1 | 2.9 µM
COc1ccccc1-c1cc(C(F)(F)F)nc(S(=O)(=O)CCCC(=O)NCc2ccc(F)cc2)n1 | 5.34 µM
N#CCc1nn(-c2ccccc2)c2ncnc(N)c12 | > 19.5 µM (inactive)
CCOC(=O)c1c(N)sc2c(O)c(Br)ccc12 | > 19.5 µM (inactive)
Cc1ccc(NC2=C/C(=N\S(=O)(=O)c3cccs3)c3ccccc3C2=O)c(C)c1 | 1.51 µM
COc1ccccc1N(C)S(=O)(=O)c1ccc(C(=O)NC(C)c2ccccc2)cc1 (configuration not stated) | > 19.5 µM (inactive)
O=C(CCl)N(c1ccccc1)C1CCCCC1 | 4.93 µM
O=C(CCl)Nc1ccc(Sc2ccc(NC(=O)CCl)cc2)cc1 | 18.3 µM
O=C(CCl)Nc1cc(SCC(O)CO)cc([N+](=O)[O-])c1 (configuration not stated) | 13.7 µM
Oc1ccc(CN2CCCc3ccccc32)c2cccnc12 | 4.67 µM
COc1ccc(C[C@H]2NC[C@H](O)[C@H]2OC(C)=O)cc1 | 0.171 µM
Nc1ncnc2c1ccn2[C@@H]1O[C@H](CO)[C@@H](O)[C@H]1O | 3.17 µM
CC1CCc2nc(N)c(C#N)c(-c3cccnc3)c2C1 (configuration not stated) | 0.708 µM
c1ccc2c(c1)OCC(c1csc3ncnc(N4CCOCC4)c13)O2 (configuration not stated) | 16.6 µM
Cc1nc(NCc2ccco2)c2c(C)c(C)sc2n1 | 0.435 µM

Structure (SMILES) | AC50
O=C(NCc1ccc2c(c1)OCO2)c1nc(S(=O)(=O)Cc2ccccc2)ncc1Cl | 16.1 µM
CC(=O)c1cn(CC(=O)Nc2ccccc2C)c2ccccc12 | 2.59 µM
CCc1ccccc1NC(=O)CSc1nnc(-c2ccncc2)o1 | > 19.5 µM (inactive)
CC[C@H]1CN2CCc3cc(OC)c(OC)cc3[C@@H]2C[C@@H]1C[C@H]1NCCc2cc(OC)c(OC)cc21 | 0.549 µM
O=C(Nc1nc(-c2cccs2)cs1)c1cccc(S(=O)(=O)N2CCCCCC2)c1 | 0.674 µM
COCC1CCCCN1C(=O)c1cc(COc2ccc3ncccc3c2)on1 (configuration not stated) | 0.448 µM
COc1ccc(CN2CCC(C(=O)Nc3ccc(Oc4cccnc4)cc3)CC2)c(C)c1C | 17.2 µM
CC(C)(C)c1nn(-c2ccccc2)c2[nH]c(=O)c(CNc3ccc4c(c3)OCCO4)cc12 | > 19.5 µM (inactive)
CCOC(=O)COc1ccccc1/C=C\[N+](=O)[O-] | 5.63 µM
O=C(CCl)Nc1cn(-c2ccccc2)nc1-c1ccc(F)cc1 | 5.82 µM
O=[N+]([O-])c1cnc(Sc2ccncn2)s1 | 13.1 µM
O=C(C#Cc1ccccc1)c1ccco1 | 4.11 µM
Cc1ccc(S(=O)(=O)c2ncccc2[N+](=O)[O-])cc1 | 16.5 µM
Cc1[nH]c2ccccc2c1/C=C/c1nc2ccccc2c(=O)n1-c1cccc([N+](=O)[O-])c1 | > 19.5 µM (inactive)
O=C(CCCCCn1c(=S)[nH]c2cc3c(cc2c1=O)OCO3)N1CCN(C(=O)c2ccco2)CC1 | > 19.5 µM (inactive)
O=C(c1nnsc1S(=O)(=O)c1ccc(Cl)cc1)N1CCOCC1 | 17.3 µM
CCOc1ccc(NCC(=O)c2ccc(C)cc2)cc1 | 12.7 µM
COc1ccc(OCc2cccc(C(=O)Nn3cc([N+](=O)[O-])cn3)c2)cc1 | 9.72 µM
N#CC1=C(N)C(C#N)(C#N)C(c2cccnc2)C2CC(c3ccccc3)CC=C12 (configuration not stated) | 19.2 µM
COc1ccc(OC)c2c1C(=O)C(Cl)=C(Cl)C2=O | 2.29 µM
CC1=NNC(=O)/C1=C\c1cn(-c2ccccc2)nc1-c1ccc(Cl)cc1 | 17.4 µM
CCCCn1c(C(C)NC(=O)CC)nc2ccccc21 (configuration not stated) | > 19.5 µM (inactive)
CCOc1cc(C(=O)NCc2ccccc2)ccc1OCC(=O)N1CCOCC1 | > 19.5 µM (inactive)
CCN(CC)S(=O)(=O)c1ccc2c(c1)c(=O)c(C(=O)NCc1ccco1)cn2C | > 19.5 µM (inactive)
Cc1nn(C(C)(C)C)c(C)c1/C=N/OC(=O)Nc1ccc(Cl)c(Cl)c1 | > 19.5 µM (inactive)
CCN(CC)c1ncnc2ccc(Br)cc12 | 19.9 µM

Structure (SMILES) | AC50
O=C(O)c1ccc(NC2=C(Cl)C(=O)c3ccccc3C2=O)cc1 | 18.6 µM
CCOc1cc(C(=S)N2CCOCC2)ccc1OS(=O)(=O)c1ccc(OC)cc1 | 16.1 µM
CCOC(=O)Cc1nnc2c(Nc3ccccc3F)nc3nonc3n12 | 2.32 µM
CN1C(C(=O)Nc2ccc(OC(F)(F)F)cc2)=CC(c2cccs2)=NS1(=O)=O | 17.7 µM
COC(=O)c1c(N2C(=O)[C@H]3[C@@H](C2=O)[C@]2(C(=O)Nc4c(C)cccc42)N2CCC[C@@H]32)sc(C)c1C | > 19.5 µM (inactive)
CCS(=O)(=O)c1ncc(Cl)c(C(=O)Nc2ccc(S(=O)(=O)N3CCC(C)CC3)cc2)n1 | 16.2 µM
CC1CCCCN1CC(=O)Nc1ccccc1Sc1ccccc1 (configuration not stated) | 15.1 µM
COc1ccc(NC(=O)CSc2nnc3ccc(-c4ccncc4)nn23)cc1OC | > 19.5 µM (inactive)
CSc1ccc(CN(C)Cc2cc(=O)oc3c(C)c(C)ccc23)cc1 | 17.1 µM
NC(=O)c1sc2nc3c(c(-c4cccs4)c2c1N)CCCCC3 | 0.404 µM
COc1ccc(S(=O)(=O)N2CCCCCC2)cc1C(=O)OCC(=O)NC(C)(C)C | > 19.5 µM (inactive)
CCn1c(SCC(=O)Nc2oc(C)c3c(C)n[nH]c(=O)c23)nc2sc(C)c(C)c2c1=O | > 19.5 µM (inactive)
Cn1c(=O)c([N+](=O)[O-])c(Cl)c2ccccc21 | 11.4 µM
Cc1ccc(-c2cn(-c3ccccc3)c(=S)[nH]2)cc1C | > 19.5 µM (inactive)
S=C1Cc2ccccc2N1 | 2.46 µM
COc1cccc(CN(C)CC(=O)Nc2cccc(C(F)(F)F)c2)c1OC | 18.8 µM
CN(C)c1ccc(CNc2ccc3c(c2)ncn3C(C)(C)C)cc1 | > 19.5 µM (inactive)
Cc1ccc(S(=O)(=O)N2CCN(CC(=O)N/N=C\c3ccncc3)CC2)cc1 | > 19.5 µM (inactive)
Cc1sc2ncnc(NCCc3ccc(S(N)(=O)=O)cc3)c2c1C | 0.185 µM
CCCC(=O)N1CCN(c2ccc(NC(=O)c3cc4ccccc4o3)cc2Cl)CC1 | 13.1 µM
CC(=O)OCCCNc1cc(Sc2ccc(C)cc2)c2nonc2c1[N+](=O)[O-] | 18.7 µM
Cc1cc(C)c(S(=O)(=O)/N=C2\C=C(Nc3ccc(C(=O)O)cc3)C(=O)c3ccccc32)c(C)c1 | 4.97 µM
C(=N\NC1=Nc2cccc3cccc1c23)/c1ccccn1 | 0.95 µM
O=[N+]([O-])c1ccc(S(=O)(=O)c2ccccc2)nc1 | 19.3 µM
CCc1ccc(S(=O)(=O)/N=C2\C=C(Nc3ccc(O)cc3)C(=O)c3ccccc32)cc1 | 1.83 µM
